Source: patent US5247084A, “Derivatives of p-guanidinobenzoic acid” (priority 1985, dated 1993)
Structures can show the parent of a compound that is named as a salt. Where two headings read alike, the source gives them in different places.

Experiments:
[1] = acute toxicity test in mice by intravenous administration; conditions: mouse, in vivo
[2] = biological target: T1, elastase from human neutrophil (Homo sapiens, UniProt P08246); assay: Inhibitory effect on elastase (spectrophotometric method, substrate Suc-Ala-Pro-Ala-pNA); format: biochemical; conditions: for IC50: pH 8.0, 37° C., 30 minutes
T1 construct: using elastase from human neutrophil; from tissue; host or cells: human neutrophil
T1 sequence (P08246 30-247 limits assumed): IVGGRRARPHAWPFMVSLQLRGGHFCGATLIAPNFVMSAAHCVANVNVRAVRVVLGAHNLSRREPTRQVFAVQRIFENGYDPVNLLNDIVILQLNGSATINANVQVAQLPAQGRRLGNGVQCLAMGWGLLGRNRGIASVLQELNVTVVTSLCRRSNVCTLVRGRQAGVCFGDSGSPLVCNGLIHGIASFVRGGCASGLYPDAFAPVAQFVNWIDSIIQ
Procedure: The test was carried out by the slight modification of the method of Bieth et al [see Biochem. Med., 75, 350 (1974)] using elastase from human neutrophil.
The reaction mixture consisted of 1 mM Suc-Ala-Pro-Ala-pNA (dissolving in N-methylpyrrolidone to the concentration of 100 mM, and then adding 1/100 amount of the solution to the reaction mixture.), 0.1 M buffer solution of tris-hydrochloric acid (pH 8.0), 0.2 M sodium chloride aqueous solution, the sample solution of various concentrations and enzyme solution in a final volume of 1.0 ml was incubated at 37° C. for 30 minutes.
The reaction was stopped by the addition of 100 μl of 50% acetic acid into the reaction mixture, and then p-nitro anilide released was measured on absorbance of 405 nm.
Inhibition percentage of the test compounds was caliculated by the following equation: [formula]

[3] = Y represents an oxygen atom, read-out: Inhibitory Effect on Elastase, IC50
[4] = Y represents a sulfur atom, read-out: Elastase Inhibitory Effect, IC50
[5] = at 50 μg/ml, Y represents a sulfur atom, read-out: Elastase Inhibitory Effect, Inhibition %

| SMILES | LD50 [1] [mg/kg] | IC50 [2, 3] [µM] | also measured |
| --- | --- | --- | --- |
| CCN(CC)S(=O)(=O)c1ccc(SC(=O)c2ccc(NC(=N)N)cc2)cc1Cl | 50 to 150 | – | – |
| CCS(=O)(=O)Oc1cc(Cl)cc(SC(=O)c2ccc(NC(=N)N)cc2)c1 | 50 to 150 | – | – |
| N=C(N)Nc1ccc(C(=O)Sc2cc(O)cc(Cl)c2)cc1 [3-chloro-5-hydroxy (Y = sulfur atom)] | 50 to 150 | – | – |
| N=C(N)Nc1ccc(C(=O)Oc2cc(Cl)ccc2Cl)cc1 [Example 37] | 50 to 150 | 1.1 | inhibition at 100 µM ([2]; Y represents an oxygen atom): 85.8% |
| CC(=O)O.CCS(=O)(=O)Oc1cc(Cl)cc(OC(=O)c2ccc(NC(=N)N)cc2)c1 [Example 75, p-guanidinobenzoic acid 3-chloro-5-ethanesulfonyloxyphenyl ester acetate] | 50 to 150 | 1.1 | – |
| CCN(CC)S(=O)(=O)c1ccc(OC(=O)c2ccc(NC(=N)N)cc2)cc1Cl [Example 94] | 50 to 150 | 22 | – |
| CS(=O)(=O)O.N=C(N)Nc1ccc(C(=O)Oc2cc(O)cc(Cl)c2)cc1 [Example 112, p-guanidinobenzoic acid 3-chloro-5-hydroxyphenyl ester methanesulfonate] | 50 to 150 | 8.3 | – |
| N=C(N)Nc1ccc(C(=O)Sc2ccccc2)cc1 [Example 124] | 50 to 150 | – | IC50 [2, 4]: 2.1 µM; inhibition at 50 µg/mL [2, 5]: 94% |
| N=C(N)Nc1ccc(C(=O)Sc2cc(Cl)ccc2Cl)cc1 [Example 135, p-guanidinobenzoic acid 2,5-dichlorothiophenyl ester methanesulfonate] | 50 to 150 | – | IC50 [2, 4]: 0.1 µM; inhibition at 50 µg/mL [2, 5]: 92.1% |
| CCN(CC)S(=O)(=O)c1ccc(SC(=O)c2ccc(NC(=N)N)cc2)cc1 [Example 146] | – | – | IC50 [2, 4]: 11 µM; inhibition at 50 µg/mL [2, 5]: 73.1% |
| N=C(N)Nc1ccc(C(=O)Oc2cccc(C(=O)O)c2Cl)cc1 [Example 147, P-guanidinobenzoic acid 3-carboxy-2-chlorophenylester hydrobromide] | – | 20 | – |
| N=C(N)Nc1ccc(C(=O)Oc2cc(C(=O)O)cc(C(=O)O)c2)cc1 [Example 148] | – | – | inhibition at 100 µM ([2]; Y represents an oxygen atom): 25% |
| N=C(N)Nc1ccc(C(=O)Oc2cc(Cl)ccc2C(=O)O)cc1 [Example 149] | – | 60 | – |
| N=C(N)Nc1ccc(C(=O)Oc2cc(Cl)cc(CO)c2)cc1 [Example 150, P-guanidinobenzoic acid 3-chloro-5-hydroxymethylphenylester acetate] | – | 4.5 | – |
| N=C(N)Nc1ccc(C(=O)Oc2cc(Cl)cc(COc3ccc(S(=O)(=O)N4CCOCC4)cc3)c2)cc1 [Example 151, P-guanidinobenzoic acid 3-chloro-5-(4-morpholinosulfonyl)phenoxymethylphenylester acetate] | – | 1.4 | – |
| COc1cc(COc2ccc(S(=O)(=O)N3CCOCC3)cc2)cc(OC(=O)c2ccc(NC(=N)N)cc2)c1 [Example 152, p-guanidinobenzoic acid 3-methoxy-5-(4-morpholinosulfonyl)phenoxymethylphenylester acetate] | – | 7 | – |
| N=C(N)Nc1ccc(C(=O)Oc2ccccc2)cc1 [hydrogen, reference compound] | 50 to 150 | – | inhibition at 50 µg/mL ([2]; at 50 μg/ml (footnote 2), Y represents an oxygen atom, read-out: Inhibitory Effect on Elastase, Inhibition %): 54.6% |
